Measurements as given in US20100056524A1, “Compound” (priority 2008, published 2010).
Structures can show the parent of a compound that is named as a salt. Where two headings read alike, the source gives them in different places.

Experiments:
[1] = biological target: T1, MNK1 (Homo sapiens, UniProt Q9BUB5); test: MNK1 protein kinase assay; type: biochemical; settings: for remaining activity at 10 µM: 10 μM compound; for residual kinase activity MNK1: 1 μm compound; for remaining activity at 1 µM: 1 μM compound
T1 construct: All protein kinases were of human origin and encoded full length proteins, unless indicated otherwise; made in house
T1 sequence (Q9BUB5 whole entry): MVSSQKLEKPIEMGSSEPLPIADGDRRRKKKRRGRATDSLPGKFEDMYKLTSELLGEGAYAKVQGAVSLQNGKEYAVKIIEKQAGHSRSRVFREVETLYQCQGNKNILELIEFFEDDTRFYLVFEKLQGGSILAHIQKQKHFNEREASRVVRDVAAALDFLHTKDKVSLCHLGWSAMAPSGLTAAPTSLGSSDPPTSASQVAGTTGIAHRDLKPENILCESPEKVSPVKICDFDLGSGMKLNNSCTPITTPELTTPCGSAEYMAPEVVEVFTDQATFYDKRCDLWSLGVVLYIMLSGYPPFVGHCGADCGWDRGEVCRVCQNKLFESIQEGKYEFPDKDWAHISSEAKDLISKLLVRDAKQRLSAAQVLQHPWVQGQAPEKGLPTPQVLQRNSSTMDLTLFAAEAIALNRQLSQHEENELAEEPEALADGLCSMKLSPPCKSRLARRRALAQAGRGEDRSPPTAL
Source text: (§1) All protein kinases were of human origin and encoded full length proteins, unless indicated otherwise. They were either expressed as glutathione S-transferase (GST) fusion proteins in Escherichia Coli or as hexahistidine (His6)-tagged proteins in insect Sf21 cells. GST fusion proteins were purified by affinity chromatography on glutathione-Sepharose, and His6-tagged proteins on nickel/nitriloacetate-agarose. The procedures for expressing some of the protein kinases used herein have been detailed previously.^8,9 The following sections outline the DNA vectors synthesised and the procedures used to express and purifying protein kinases that have not been reported previously.
(§2) All assays (25.5 μl) were carried out at room temperature (21° C.) and were linear with respect to time and enzyme concentration under the conditions used. Assays were performed for 30 min using Multidrop Micro reagent dispensers (Thermo Electron Corporation, Waltham, Mass. 02454, USA) in a 96-well format. The concentration of magnesium acetate in the assays was 10 mM and the [γ-33P] ATP (800 cpm/pmol) was used at 5, 20 or 50 μM as indicated, in order to be at or below the Km for ATP for each enzyme. Protein kinases assayed at 5 μM ATP were: —ERK1, ERK8, PKBα, MARK3, Aurora C. Protein kinases assayed at 20 μM ATP were: —JNK1, PDK1, CHK1, CHK2, CDK2 and Aurora B. Protein kinases assayed at 50 μM ATP were: —MNK2, IKKepsilon and TBK1.
(§3) The assays were initiated with MgATP, stopped by addition of 5 μl of 0.5 M orthophosphoric acid and spotted on to P81 filterplates using a unifilter harvester (PerkinElmer, Boston, Mass. 02118, USA). The IC50 values of inhibitors were determined after carrying out assays at 10 different concentrations of each compound.
(§4) Unless stated otherwise, enzymes were diluted in 50 mM Tris/HCl pH 7.5, 0.1 mM EGTA, 1 mg/ml BSA, 0.1% (v/v) 2-mercaptoethanol and assayed in 50 mM Tris/HCl pH 7.5, 0.1 mM EGTA, 0.1% (v/v) 2-mercaptoethanol.

[2] = biological target: T2, MST4 (Homo sapiens, UniProt Q9P289); test: MST4 protein kinase assay; type: biochemical; settings: for remaining activity at 10 µM: 10 μM compound; for residual kinase activity MST4: 1 μm compound; for remaining activity at 1 µM: 1 μM compound
T2 construct: All protein kinases were of human origin and encoded full length proteins, unless indicated otherwise; made in house
T2 sequence (Q9P289 whole entry): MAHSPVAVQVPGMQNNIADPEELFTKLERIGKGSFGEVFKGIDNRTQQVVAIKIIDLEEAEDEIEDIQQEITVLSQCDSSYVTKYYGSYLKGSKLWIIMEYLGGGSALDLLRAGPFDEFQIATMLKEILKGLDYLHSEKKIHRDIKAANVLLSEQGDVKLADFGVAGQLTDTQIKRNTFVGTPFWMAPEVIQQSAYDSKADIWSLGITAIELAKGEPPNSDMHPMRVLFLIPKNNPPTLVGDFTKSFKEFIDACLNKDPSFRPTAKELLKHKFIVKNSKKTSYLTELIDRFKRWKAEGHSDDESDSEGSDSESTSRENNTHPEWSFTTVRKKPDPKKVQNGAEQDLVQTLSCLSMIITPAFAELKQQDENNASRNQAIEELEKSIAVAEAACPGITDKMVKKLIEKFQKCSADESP
Source text: as §1, §2, §3, §4

[3] = tested on: IGF-1R; test: IGF-1R protein kinase assay; type: biochemical, human; settings: for residual kinase activity: IGF-1R
Source text: as §1, §2, §3, §4

[4] = biological target: T3, BRSK2 (Homo sapiens, UniProt Q8IWQ3); test: BRSK2 protein kinase assay; type: biochemical; settings: for remaining activity at 10 µM: 10 μM compound; for residual kinase activity BRSK2: 1 μm compound; for remaining activity at 1 µM: 1 μM compound
T3 construct: All protein kinases were of human origin and encoded full length proteins, unless indicated otherwise; made in house
T3 sequence (Q8IWQ3 1-736): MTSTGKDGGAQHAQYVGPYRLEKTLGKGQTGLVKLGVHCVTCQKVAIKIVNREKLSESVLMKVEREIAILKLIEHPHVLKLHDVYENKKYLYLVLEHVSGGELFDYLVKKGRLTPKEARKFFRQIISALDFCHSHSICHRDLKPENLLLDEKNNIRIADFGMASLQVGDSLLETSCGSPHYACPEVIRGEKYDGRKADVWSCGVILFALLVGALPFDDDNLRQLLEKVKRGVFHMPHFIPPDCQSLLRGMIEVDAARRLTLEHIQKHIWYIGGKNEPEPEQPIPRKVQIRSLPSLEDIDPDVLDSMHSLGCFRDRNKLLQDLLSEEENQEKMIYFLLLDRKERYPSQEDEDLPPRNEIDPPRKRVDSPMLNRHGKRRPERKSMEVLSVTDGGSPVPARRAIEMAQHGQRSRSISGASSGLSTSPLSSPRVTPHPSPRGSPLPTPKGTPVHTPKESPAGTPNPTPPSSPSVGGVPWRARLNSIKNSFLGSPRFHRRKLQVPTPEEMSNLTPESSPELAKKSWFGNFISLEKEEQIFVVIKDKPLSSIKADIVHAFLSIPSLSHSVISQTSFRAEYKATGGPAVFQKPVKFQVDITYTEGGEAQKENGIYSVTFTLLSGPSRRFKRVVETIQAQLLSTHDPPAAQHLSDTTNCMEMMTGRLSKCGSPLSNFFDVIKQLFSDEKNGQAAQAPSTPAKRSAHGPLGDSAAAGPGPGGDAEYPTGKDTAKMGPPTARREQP
Source text: as §1, §2, §3, §4

[5] = biological target: T4, ERK2 (Homo sapiens, UniProt P28482); test: ERK2 protein kinase assay; type: biochemical; settings: for remaining activity at 10 µM: 10 μM compound; for residual kinase activity ERK2: 1 μm compound; for remaining activity at 1 µM: 1 μM compound
T4 construct: All protein kinases were of human origin and encoded full length proteins, unless indicated otherwise; made in house
T4 sequence (P28482 2-360): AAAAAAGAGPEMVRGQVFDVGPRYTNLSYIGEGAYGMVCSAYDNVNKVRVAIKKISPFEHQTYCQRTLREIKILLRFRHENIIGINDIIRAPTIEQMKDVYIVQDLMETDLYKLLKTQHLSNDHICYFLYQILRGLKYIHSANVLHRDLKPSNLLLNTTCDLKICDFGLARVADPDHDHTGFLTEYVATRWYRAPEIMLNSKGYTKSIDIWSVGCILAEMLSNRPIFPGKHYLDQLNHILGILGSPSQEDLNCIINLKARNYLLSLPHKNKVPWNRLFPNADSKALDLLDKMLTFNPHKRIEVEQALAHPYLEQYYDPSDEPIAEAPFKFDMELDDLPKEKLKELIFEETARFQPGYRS
Source text: as §1, §2, §3, §4

[6] = biological target: T5, SYK (Homo sapiens, UniProt P43405); test: SYK protein kinase assay; type: biochemical; settings: for remaining activity at 10 µM: 10 μM compound; for residual kinase activity SYK: 1 μm compound; for remaining activity at 1 µM: 1 μM compound
T5 construct: All protein kinases were of human origin and encoded full length proteins, unless indicated otherwise; made in house
Source text: as §1, §2, §3, §4

[7] = read-out: residual kinase activity MNK1
[8] = read-out: residual kinase activity MST4
[9] = read-out: residual kinase activity BRSK2
[10] = read-out: residual kinase activity ERK2
[11] = read-out: residual kinase activity SYK
[12] = MNK1, read-out: residual kinase activity
[13] = MST4, read-out: residual kinase activity
[14] = BRSK2, read-out: residual kinase activity
[15] = ERK2, read-out: residual kinase activity
[16] = SYK, read-out: residual kinase activity

Structure (SMILES)	remaining activity at 10 µM [1, 7] [%]	residual kinase activity MNK1 [1] [%]	remaining activity at 10 µM [2, 8] [%]	residual kinase activity MST4 [2] [%]	residual kinase activity IGF-1R ([3]; 10 μM compound) [%]	residual kinase activity IGF-1R ([3]; 1 μm compound) [%]	remaining activity at 10 µM [4, 9] [%]	residual kinase activity BRSK2 [4] [%]	remaining activity at 1 µM [1, 12] [%]	remaining activity at 10 µM [1, 12] [%]	remaining activity at 1 µM [2, 13] [%]	remaining activity at 10 µM [2, 13] [%]	residual kinase activity ([3]; 1 μM compound) [%]	residual kinase activity ([3]; 10 μM compound) [%]	remaining activity at 1 µM [4, 14] [%]	remaining activity at 10 µM [4, 14] [%]	remaining activity at 1 µM [5, 15] [%]	remaining activity at 10 µM [5, 15] [%]	remaining activity at 1 µM [6, 16] [%]	remaining activity at 10 µM [6, 16] [%]	also measured
O=C(NCCCNc1nc(Nc2cccc(F)c2)ncc1Br)C1CCC1 [Compound A, cyclobutanecarboxylic acid {3-[5-bromo-2-(3-fluoro-phenylamino)-pyrimidin-4-ylamino]-propyl}-amide, reference compound]	15	49	47	90	21	78	6	23													remaining activity at 10 µM [5, 10]: 10%; residual kinase activity ERK2 [5]: 49%; remaining activity at 10 µM [6, 11]: 4%; residual kinase activity SYK [6]: 25%
O=C(NCCCNc1nc(Nc2cccc(F)c2)ncc1C1CC1)C1CCC1 [Example 23, Cyclobutanecarboxylic acid {3-[5-cyclopropyl-2-(3-fluoro-phenylamino)-pyrimidin-4-ylamino]-propyl}-amide]	62	85	56	94	87	86	26	64	85	62	94	56	86	87	64	26	107	108	87	46	remaining activity at 10 µM [5, 10]: 108%; residual kinase activity ERK2 [5]: 107%; remaining activity at 10 µM [6, 11]: 46%; residual kinase activity SYK [6]: 87%
O=C(NCCCNc1nc(Nc2cccc(N3CCCC3=O)c2)ncc1C1CC1)c1cccs1 [Example 47, Thiophene-2-carboxylic acid (3-{5-cyclopropyl-2-[3-(2-oxo-pyrrolidin-1-yl)-phenylamino]-pyrimidin-4-ylamino}-propyl)-amide. Hydrochloride salt]									93	73	124	111	39	35	91	36	90	66	82	49	
O=C(NCCCNc1nc(Nc2cccnc2)ncc1C1CC1)c1cccs1 [Example 50, Thiophene-2-carboxylic acid {3-[5-cyclopropyl-2-(pyridin-3-ylamino)-pyrimidin-4-ylamino]-propyl}-amide]									94	81	164	120	47	32	87	42	106	62	83	60	
